Laboratory results: patent publication US5430148A, “Antiproliferative quinazolines” (Agouron Pharmaceuticals, Inc., priority 1992, dated 1995)
Like-named read-outs stand apart in the source and are kept apart here.

Legend:
[1] = biological target: E. coli TS (thymidylate synthase) (Escherichia coli, UniProt P0A884); experiment: Inhibition constants against 5,10-methylenetetrahydrofolate for thymidylate synthase, E. coli enzyme (tritium release); type: biochemical
Experimental: (§1) Determination of Inhibition Constants Against 5,10-Methylenetetrahydrofolate for the Enzyme Thymidylate Synthase
(§2) Inhibition constants, Ki, slope and Ki, intercept [W. W. Cleland, Biochim. Biophys. […] The cofactor was present as the variable substrate under conditions of saturating radiolabelled 2'-deoxyuridine 5-monophosphate (dUMP). […] Assays of human TS also contained 1-5 μg/mL bovine serum albumin to stabilize the protein. Reactions were initiated by the addition of enzyme and were carried out for 5 minutes at 24° C., and then quenched by the addition of charcoal (15 mg in 0.1 mL H2 O). The quenched samples were centrifuged at 10,000 rpm for 12-15 min at […] to remove unreacted dUMP which had bound to the charcoal, and 0.1 mL of the supernatant was counted by liquid scintillation in the presence of 5 mL ecolume to determine the release of tritium label from the 5-position of the dUMP. […] Experimental results were analyzed by EZ-FIT, a nonlinear regression analysis program (Perrella Scientific, Springfield, Pa.) which was used to fit all data points simultaneously to a mixed noncompetitive inhibition scheme.

[2] = biological target: human TS (thymidylate synthase) (Homo sapiens, UniProt P04818); experiment: Inhibition constants against 5,10-methylenetetrahydrofolate for thymidylate synthase, human enzyme (tritium release); type: biochemical; details: cofactor as variable substrate, pH 7.6, 24° C.
Chain of human TS (thymidylate synthase) (P04818 2-313 limits assumed): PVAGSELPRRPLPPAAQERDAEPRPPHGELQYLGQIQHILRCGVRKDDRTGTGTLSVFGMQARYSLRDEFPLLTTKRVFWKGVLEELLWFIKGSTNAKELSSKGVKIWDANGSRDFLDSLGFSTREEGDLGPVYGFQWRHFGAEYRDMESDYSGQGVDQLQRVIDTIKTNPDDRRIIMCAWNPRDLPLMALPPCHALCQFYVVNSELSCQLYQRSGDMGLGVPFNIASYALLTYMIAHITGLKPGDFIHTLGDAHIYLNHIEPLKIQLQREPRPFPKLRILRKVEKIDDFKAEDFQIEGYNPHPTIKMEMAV
Experimental: as §1, §2

CCRF-CEM cells = experiment: Inhibition of growth of tumor cells, CCRF-CEM human lymphoblastic leukemia (MTT); type: cell-based; details: for IC50: read-out: Cell Culture IC50, CCRF-CEM; for inhibition at 50 µM: read-out: growth inhibition, CCRF-CEM
Experimental: (§3) In Vitro Testing to Determine Inhibition of Growth of Tumor Cells
(§4) Growth was measured over 3 days (L1210) or 5 days (CCRF-CEM, GC3 /M TK^-) of continuous exposure to varying concentrations of each test compound, added 4 h. after initial cell plating, by the MTT-tetrazolium reduction assay of T. J. Mosmann [J. Immunol. Meth. […] Water insoluble derivatives were dissolved in DMSO and diluted to a final concentration of 0.5% solvent in cell cultures.

GC3/M TK- cells = experiment: Inhibition of growth of tumor cells, thymidine kinase-deficient human colon adenocarcinoma GC3/M TK- (MTT); type: cell-based; details: for IC50: read-out: Cell Culture IC50, GC3-M (TK-)
Experimental: as §3, §4

[3] = test system: L1210 murine leukemia cells; experiment: Inhibition of growth of tumor cells, L1210 murine leukemia (MTT); type: cell-based; details: for IC50: read-out: Cell Culture IC50, L1210; for inhibition at 50 µM: read-out: growth inhibition, L1210
Experimental: as §3, §4

[4] = read-out: Ki Data, human thymidylate synthase
[5] = Homo sapiens, CCRF-CEM, 120 h, 5 days continuous exposure, MTT
[6] = Homo sapiens, GC3/MTK-, 120 h, 5 days continuous exposure, MTT
[7] = Mus musculus, L1210, 72 h, 3 days continuous exposure, MTT
[8] = Ki Data, human thymidylate synthase
[9] = Mus musculus, L1210, 72 h, @ > 50 μM, 3 days
[10] = 3 days continuous exposure, MTT
[11] = 5 days continuous exposure, MTT

Chain of E. coli TS (thymidylate synthase) (P0A884 whole entry): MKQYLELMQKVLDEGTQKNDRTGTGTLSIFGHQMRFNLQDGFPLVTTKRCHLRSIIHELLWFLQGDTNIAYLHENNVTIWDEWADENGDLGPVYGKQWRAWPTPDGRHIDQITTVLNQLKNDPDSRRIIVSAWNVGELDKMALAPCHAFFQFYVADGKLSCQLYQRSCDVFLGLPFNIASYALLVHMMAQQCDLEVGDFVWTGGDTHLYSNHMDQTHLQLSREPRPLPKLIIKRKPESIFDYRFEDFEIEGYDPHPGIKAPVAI

Row | SMILES | Ki [1] [nM] | Ki [2, 4] [nM] | IC50 (CCRF-CEM cells; [5]) [nM] | IC50 (GC3/M TK- cells; [6]) [nM] | IC50 [3, 7] [nM] | Ki [2, 8] [nM] | also measured
1 | Cc1nc(O)c2c(Oc3ccccc3)cccc2n1 [Compound 1A] | > 100000 | – | – | – | – | – | –
2 | Cc1nc(O)c2c(Sc3ccccc3)cccc2n1 [Compound 2A] | > 10000 | – | – | – | – | – | –
3 | Cc1nc2cccc(Cn3ccc4cc(Cl)ccc43)c2c(=O)[nH]1 [Compound 3A, 5-Chloro-N-[(3,4-dihydro-2-methyl-4-oxo-5-quinazolyl)methyl]indole] | > 3000 | > 3000 | > 12300 | > 12700 | – | – | inhibition at 12.3 µM (CCRF-CEM cells; Homo sapiens, CCRF-CEM, 120 h, > 12.3 μM, 5 days): 10%; inhibition at 12.7 µM (GC3/M TK- cells; Homo sapiens, GC3/MTK-, 120 h, > 12.7 μM, 5 days): 20%
4 | Cc1nc2cccc(C(O)(c3ccccc3)c3ccccc3)c2c(=O)[nH]1 [Compound 6A, 3,4-Dihydro-5-(α-diphenyl-hydroxymethyl)-2-methyl-4-oxo-quinazoline] | > 10000 | > 10000 | 4000 | > 4980 | 2300 | – | –
5 | Cc1nc2cccc(Sc3ccncc3)c2c(=O)[nH]1 [Compound 7A] | 38000 ± 5000 | 2100 ± 500 | > 26900 | > 26900 | – | – | growth inhibition, L1210 ([3]; @ 20 um, 3 days): 68%; inhibition at 26.9 µM (CCRF-CEM cells; Homo sapiens, CCRF-CEM, 120 h, @ > 26.9 μM, 5 days): 37%; growth inhibition, GC3-M (TK-) (GC3/M TK- cells; @ > 26.9 μM, 5 days): none
6 | Cc1nc2ccc(C)c(Sc3ccncc3)c2c(=O)[nH]1 [Compound 8A, 3,4-Dihydro-2,6-dimethyl-4-oxo-5-(4-pyridylthio)-quinazoline] | 890 ± 280 | – | 5200 | 6000 | 3500 | 62 | –
7 | Cc1nc2ccc(C)c(Sc3ccc(S(=O)(=O)c4ccccc4)cc3)c2c(=O)[nH]1 [Compound 9A] | – | – | 2100 | 4500 | 1800 | – | –
8 | Cc1nc2ccc(C)c(Sc3ccc([N+](=O)[O-])cc3)c2c(=O)[nH]1 [Compound 10A] | 750 ± 80 | – | 2900 | > 4000 | 3000 | 83 ± 11 | –
9 | Cc1nc2ccc(C)c(Sc3nnc(C)s3)c2c(=O)[nH]1 [Compound 11A] | 21000 ± 13000 | 2000 ± 400 | > 3330 | > 3330 | > 3330 | – | growth inhibition, L1210 ([3]; @ > 3.33 μM, 3 days): none; inhibition at 3.33 µM (CCRF-CEM cells; Homo sapiens, CCRF-CEM, 120 h, @ > 3.33 μM, 5 days): 17%; growth inhibition, GC3-M (TK-) (GC3/M TK- cells; @ > 3.33 μM, 5 days): none
10 | COc1ccc2nc(C)[nH]c(=O)c2c1Sc1ccncc1 [Compound 13A, 3,4-Dihydro-6-methoxy-2-methyl-4-oxo-5-(4-pyridylthio)-quinazoline] | – | – | 26000 | 32000 | 21000 | – | –
11 | Cc1ccc2nc(N)[nH]c(=O)c2c1Sc1ccncc1 [Compound 14A, 2-Amino-3,4-dihydro-6-methyl-4-oxo-5-(4-pyridylthio)-quinazoline] | 150 ± 30 | – | 810 | 1000 | 1000 | – | –
12 | Cc1nc2ccc(O)c(Sc3ccncc3)c2c(=O)[nH]1 [Compound 15A, 3,4-Dihydro-6-hydroxy-2-methyl-4-oxo-5-(4-pyridylthio)-quinazoline] | – | 19000 ± 11000 | > 50000 | > 50000 | > 50000 | – | inhibition at 50 µM [3, 9]: 27%; inhibition at 50 µM (CCRF-CEM cells; Homo sapiens, CCRF-CEM, 120 h, @ > 50 μM, 5 days): 40%; inhibition at 50 µM (GC3/M TK- cells; Homo sapiens, GC3/MTK-, 120 h, @ > 50 μM, 5 days): 4%
13 | COc1cc(Sc2c(C)ccc3nc(C)[nH]c(=O)c23)ccn1 [Compound 16A, 3,4-Dihydro-2,6-dimethyl-4-oxo-5-[4-(6-methoxypyridylthio)]quinazoline] | 760 ± 120 | – | – | > 5000 | – | 48 ± 6 | –
14 | Cc1nc2ccc(C)c(Sc3ccnc(C(F)(F)F)c3)c2c(=O)[nH]1 [Compound 17A, 3,4-Dihydro-2,6-dimethyl-4-oxo-5-[4-(6-trifluoromethylpyridylthio)]-quinazoline] | – | 130 ± 30 | – | – | – | – | –
15 | Cc1ccc2nc(N)[nH]c(=O)c2c1Sc1ccnc(C(F)(F)F)c1 [Compound 18A, 2-Amino-3,4-dihydro-6-methyl-4-oxo-5-[4-(6-trifluoromethylpyridylthio)]-quinazoline] | – | – | > 2000 | > 2000 | 1800 | – | inhibition at 2 µM (CCRF-CEM cells; Homo sapiens, CCRF-CEM, 120 h, @ > 2.0 μM, 5 days): 33%; inhibition at 2 µM (GC3/M TK- cells; Homo sapiens, GC3/MTK-, 120 h, @ > 2.0 μM, 5 days): 33%
16 | Cc1nc2ccc(C)c(Sc3cccnc3)c2c(=O)[nH]1 [Compound 21A] | – | – | – | – | – | 190000 ± 25000 | IC50 ([3]; Mus musculus, L1210, 72 h): > 50000 nM; inhibition at 50 µM ([3]; Mus musculus, L1210, 72 h): 28%; IC50 (CCRF-CEM cells; Homo sapiens, CCRF-CEM, 120 h): > 50000 nM; inhibition at 50 µM (CCRF-CEM cells; Homo sapiens, CCRF-CEM, 120 h): 42%; growth inhibition, GC3-M (TK-) (GC3/M TK- cells; @ > 50 μM, 5 days): none; IC50 (GC3/M TK- cells; Homo sapiens, GC3/MTK-, 120 h): > 50000 nM
17 | Cc1nc2ccc(C)c(Sc3ccncc3)c2c(=O)[nH]1 [Compound 23A] | – | – | – | – | – | 130 ± 9 | IC50 [3, 10]: 3500 nM; IC50 (CCRF-CEM cells; [11]): 5100 nM; IC50 (GC3/M TK- cells; [11]): 6100 nM
18 | Cc1ccc2nc(N)[nH]c(=O)c2c1Sc1ccncc1 [Compound 24A] | – | – | 1100 | 1200 | 550 | – | –
19 | Cc1ccc2nc(N)[nH]c(=O)c2c1Sc1ccncc1 [Compound 25A] | – | – | – | – | – | – | IC50 [3, 10]: 590 nM; IC50 (CCRF-CEM cells; [11]): 1100 nM; IC50 (GC3/M TK- cells; [11]): 1700 nM
20 | Cc1nc2ccc(C)c(Sc3ccnc(N(C)C)c3)c2c(=O)[nH]1 [Compound 26A, 3,4-Dihydro-2,6-dimethyl-4-oxo-5-[4-(6-dimethylaminopyridylthio)]-quinazoline] | – | – | 10500 | 18000 | 4050 | 79 | –
21 | Cc1nc2ccc(C)c(Sc3ccc(C(=O)N[C@@H](CCC(=O)O)C(=O)O)cc3)c2c(=O)[nH]1 [Compound 27A, N-[4-((3,4-Dihydro-2,6-dimethyl-4-oxo-5-quinazolinyl)thio)benzoyl]-L-glutamic acid] | – | – | 990 | 4100 | 1050 | 7.95 | –
22 | Cc1nc2ccc(C)c(Sc3ccc(C(=O)O)cc3)c2c(=O)[nH]1 [Compound 28A, 4-[(3,4-Dihydro-2,6-dimethyl-4-oxo-5-quinazolinyl)thio]-benzoic acid] | – | – | > 50000 | > 50000 | > 50000 | 115 | inhibition at 50 µM [3, 9]: 27%; growth inhibition, CCRF-CEM (CCRF-CEM cells; @ > 50 μM, 5 days): none; growth inhibition, GC3-M (TK-) (GC3/M TK- cells; @ > 50 μM, 5 days): none
23 | Cc1nc2ccc(C)c(Sc3ccnnc3)c2c(=O)[nH]1 [Compound 29A] | – | 120 ± 20 | – | > 12500 | – | – | –
24 | Cc1ccc2nc(N)[nH]c(=O)c2c1Sc1ccnnc1 [Compound 30A] | – | 11 | 880 | 1500 | 1600 | – | –
